Calls of active or inactive are those of the source. The rule behind the calls is not given here.
Columns and labels:
Staphylococcus aureus [1] = test: Antibacterial activity against methicillin-resistant Staphylococcus aureus 3 infected in KM mouse assessed as reduction in bacterial load at infection site at 5 mg/kg administered into skin infection site measured after 24 hrs relative to control; format: functional; design: scale not given: the % may be the effect or the level left
[2] = Toxicity in KM mouse assessed as pathological changes in kidneys at 20 mg/kg, sc administered into middle dorsum and measured after 24 hrs by H and E staining based analysis; format: organism-based; settings: in vivo
Staphylococcus aureus [3] = test: Induction of drug resistance in Staphylococcus aureus ATCC 29213 assessed as increase in MIC at 0.5 times MIC measured for 20 passages; format: functional
[4] = Toxicity in KM mouse assessed as effect on RBC count at 20 mg/kg, sc administered into middle dorsum and measured after 24 hrs by routine blood test; format: organism-based, Erythrocyte; settings: in vivo
Staphylococcus aureus [5] = test: Anti-MRSA activity against methicillin-resistant Staphylococcus aureus 3 incubated for 16 to 18 hrs in presence of 0 to 64 ug/ml phosphatidylethanolamine by checkerboard broth dilution method; format: functional, organism-based; settings: time 16-18 hrs
Cell membrane [6] = test: Induction of membrane depolarization in methicillin-resistant Staphylococcus aureus 3 assessed as increase in fluorescence intensity measured every 2 mins for 20 mins by SYTOX-green dye based fluorescence assay; format: subcellular; settings: dose 8-32 µg/ml
Staphylococcus aureus [7] = test: Antibacterial activity against methicillin-resistant Staphylococcus aureus clinical isolate 9 incubated for 16 to 18 hrs by CLSI-based microbroth dilution method; format: functional; settings: time 16-18 hrs
Staphylococcus aureus [8] = test: Antibacterial activity against methicillin-resistant Staphylococcus aureus clinical isolate 7 incubated for 16 to 18 hrs by CLSI-based microbroth dilution method; format: functional; settings: time 16-18 hrs
Staphylococcus aureus [9] = test: Antibacterial activity against methicillin-resistant Staphylococcus aureus clinical isolate 10 incubated for 16 to 18 hrs by CLSI-based microbroth dilution method; format: functional; settings: time 16-18 hrs
Staphylococcus aureus [10] = test: Antibacterial activity against methicillin-resistant Staphylococcus aureus clinical isolate 3 incubated for 16 to 18 hrs by CLSI-based microbroth dilution method; format: functional; settings: time 16-18 hrs
Cell membrane [11] = test: Disruption of membrane integrity in methicillin-resistant Staphylococcus aureus 3 assessed as increase in DNA leakage at 1 to 8 times MIC incubated for 4 hrs by microspectrophotometer analysis; format: subcellular
[12] = Toxicity in KM mouse infected with methicillin-resistant Staphylococcus aureus 3 assessed as vacuolar degeneration in the kidneys at 5 to 10 mg/kg administered into skin infection site measured after 24 hrs by H and E staining based analysis; format: organism-based; settings: in vivo, topical_or_ocular, dose 5-10 mg/kg
[13] = Toxicity in KM mouse assessed as effect on platelet count at 20 mg/kg, sc administered into middle dorsum and measured after 24 hrs by routine blood test; format: organism-based; settings: in vivo
[14] = Toxicity in KM mouse infected with methicillin-resistant Staphylococcus aureus 3 assessed as multifocal enlargement of hepatocytes with cytoplasmic foamy swelling at 5 to 10 mg/kg administered into skin infection site measured after 24 hrs by H and E staining based analysis; format: organism-based; settings: in vivo, topical_or_ocular, dose 5-10 mg/kg
Staphylococcus aureus [15] = test: Anti-MRSA activity against methicillin-resistant Staphylococcus aureus 3 incubated for 16 to 18 hrs in presence of 0 to 32 ug/ml cardiolipin by checkerboard broth dilution method; format: functional; settings: time 16-18 hrs
Staphylococcus aureus [16] = test: Bactericidal activity against methicillin-resistant Staphylococcus aureus 3 at 4 times MIC by plate colony counting method; format: functional, organism-based; settings: time 0-8 hrs, TDE = time-dependent effect
[17] = Toxicity in KM mouse assessed as effect on hematocrit level at 20 mg/kg, sc administered into middle dorsum and measured after 24 hrs by routine blood test; format: organism-based; settings: in vivo
Cell membrane [18] = test: Disruption of membrane integrity in methicillin-resistant Staphylococcus aureus 3 assessed as appearance of uneven cell surface at 16 ug/ml incubated for 240 mins by SEM analysis; format: subcellular; settings: dose 16.0 µg/ml
[19] = Toxicity in KM mouse assessed as effect on albumin level at 20 mg/kg, sc administered into middle dorsum and measured after 24 hrs by routine blood test; format: organism-based; settings: in vivo
Staphylococcus aureus [20] = test: Antibacterial activity against methicillin-resistant Staphylococcus aureus 3 infected in KM mouse assessed as reduction in bacterial load at infection site by measuring colony forming units at 5 mg/kg administered into skin infection site measured after 24 hrs; format: functional
[21] = Toxicity in KM mouse assessed as effect on creatinine level at 20 mg/kg, sc administered into middle dorsum and measured after 24 hrs by routine blood test; format: organism-based; settings: in vivo
Staphylococcus aureus [22] = test: Induction of ROS production in methicillin-resistant Staphylococcus aureus 3 assessed as increase in intracellular ROS level incubated for 40 mins by DCFH-DA dye based fluorescence analysis; format: functional, organism-based; settings: dose 0-64 µg/ml
Cell membrane [23] = test: Induction of membrane depolarization in methicillin-resistant Staphylococcus aureus 3 assessed as increase in fluorescence intensity at 8 to 16 ug/ml measured every 2 mins for 20 mins by DiSC35 dye-based fluorescence assay; format: subcellular; settings: dose 8-16 µg/ml
L02 = test: Cytotoxicity against human L02 cells assessed as reduction in cell viability at 64 ug/ml incubated for 24 hrs by CCK-8 assay; format: toxicity, cell-based; settings: l02, 24 h, dose 64 µg/ml
[24] = Toxicity in KM mouse infected with methicillin-resistant Staphylococcus aureus 3 assessed as heart damage at 5 to 10 mg/kg administered into skin infection site measured after 24 hrs by H and E staining based analysis; format: organism-based; settings: in vivo, topical_or_ocular, dose 5-10 mg/kg
Staphylococcus aureus [25] = test: Antibacterial activity against methicillin-resistant Staphylococcus aureus 3 infected in KM mouse assessed as reduction in size of abscesses at 5 mg/kg administered into skin infection site measured after 24 hrs; format: functional, organism-based
[26] = Toxicity in KM mouse assessed as redness in skin at 40 to 80 mg/kg, sc administered into middle dorsum and measured after 24 hrs; format: organism-based; settings: in vivo, dose 40-80 mg/kg
Staphylococcus aureus [27] = test: Bactericidal activity against Staphylococcus aureus ATCC 29213 at 4 times MIC by time kill assay; format: functional, organism-based; settings: time 0-8 hrs, TDE = time-dependent effect
[28] = Toxicity in KM mouse assessed as pathological changes in spleen at 20 mg/kg, sc administered into middle dorsum and measured after 24 hrs by H and E staining based analysis; format: organism-based; settings: in vivo
Staphylococcus aureus [29] = test: Antibacterial activity against methicillin-resistant Staphylococcus aureus 3 infected in KM mouse assessed as reduction in bacterial load at infection site at 10 mg/kg administered into skin infection site measured after 24 hrs relative to control; format: functional; design: scale not given: the % may be the effect or the level left
Staphylococcus aureus [30] = test: Bactericidal activity against methicillin-resistant Staphylococcus aureus 3 incubated for 6 hrs in presence of 50% sheep plasma; format: functional, organism-based
Staphylococcus aureus [31] = test: Antibacterial activity against methicillin-resistant Staphylococcus aureus 3 infected in KM mouse assessed as reduction in bacterial load at infection site by measuring colony forming units at 10 mg/kg administered into skin infection site measured after 24 hrs; format: functional
[32] = Hemolytic activity in sheep erythrocytes incubated for 1 hr by absorbance based analysis; format: toxicity, cell-based, Ovis aries, Erythrocyte
Staphylococcus aureus [33] = test: Antibacterial activity against Staphylococcus aureus ATCC 29213 incubated for 16 to 18 hrs by CLSI-based microbroth dilution method; format: functional; settings: time 16-18 hrs
Staphylococcus aureus [34] = test: Anti-MRSA activity against methicillin-resistant Staphylococcus aureus 3 incubated for 16 to 18 hrs in presence of 0 to 64 ug/ml peptidoglycan by checkerboard broth dilution method; format: functional, organism-based; settings: time 16-18 hrs
Cell membrane [35] = test: Disruption of membrane integrity in methicillin-resistant Staphylococcus aureus 3 assessed as appearance of ruptured cell surface at 16 ug/ml incubated for 240 mins by SEM analysis; format: subcellular; settings: dose 16.0 µg/ml
Staphylococcus aureus [36] = test: Antibacterial activity against methicillin-resistant Staphylococcus aureus clinical isolate 8 incubated for 16 to 18 hrs by CLSI-based microbroth dilution method; format: functional; settings: time 16-18 hrs

For `CCCN(CCC)C(=O)C[N+](C)(C)CCCCOc1ccc(/C=C/C(=O)c2c(OC)cc3c(c2O)C=CC(C)(C)O3)cc1.[Br-]`, the Activity (Staphylococcus aureus [1]) was 99.905%, the Activity [2] was “Non-Toxic” and the Activity (Staphylococcus aureus [3]) was “inactive”. The Activity [4] was “Non-Toxic”, the Activity (Staphylococcus aureus [5]) was “Active” and the Activity (Cell membrane [6]) was “Dose-Dependent Effect”. It also gave an MIC (Staphylococcus aureus [7]) of 2 µg/mL, an MIC (Staphylococcus aureus [8]) of 2 µg/mL and an MIC (Staphylococcus aureus [9]) of 1 µg/mL. The MIC (Staphylococcus aureus [10]) was 1 µg/mL, the Activity (Cell membrane [11]) was “Dose-Dependent Effect” and the Activity [12] was “Non-Toxic”. The Activity [13] was “Non-Toxic”, the Activity [14] was “Non-Toxic” and the MIC (Staphylococcus aureus [15]) was 1 µg/mL. The Activity (Staphylococcus aureus [16]) was “Tde”, the Activity [17] was “Non-Toxic” and the Activity (Cell membrane [18]) was “Active”. The Activity [19] was “Non-Toxic”, the Activity (Staphylococcus aureus [20]) was 3 log10CFU/g and the Activity [21] was “Non-Toxic”. The Activity (Staphylococcus aureus [22]) was “Active”, the Activity (Cell membrane [23]) was “Active” and the Activity (L02) was “Non-Toxic”. The Activity [24] was “Non-Toxic”, the Activity (Staphylococcus aureus [25]) was “Active” and the Activity [26] was “Toxic”. For the same compound, the Activity (Staphylococcus aureus [27]) was “Tde”, the Activity [28] was “Non-Toxic” and the Activity (Staphylococcus aureus [29]) was 99.998%. For the same compound, the Activity (Staphylococcus aureus [30]) was “Active”, the Activity (Staphylococcus aureus [31]) was 4.5 log10CFU/g and the HC50 at 1 h [32] was 338 µg/mL. The MIC (Staphylococcus aureus [33]) was 1 µg/mL, the Activity (Staphylococcus aureus [34]) was “Active” and the Activity (Cell membrane [35]) was “Active”. The MIC (Staphylococcus aureus [36]) was 2 µg/mL.

— ChEMBL document CHEMBL5316298, “Discovery of Amphiphilic Xanthohumol Derivatives as Membrane-Targeting Antimicrobials against Methicillin-Resistant Staphylococcus aureus” (J Med Chem, 2023)
